According to patent US5273986A, “Cycloalkylthiazoles” (Hoffmann-La Roche Inc., priority 1992, dated 1993):
Like-named read-outs stand apart in the source and are kept apart here. Each block holds one compound with its values, some of them ahead of it.

Tests used:
[1] = system: LTD4-induced bronchoconstriction; test: Antagonism of LTD4-induced bronchoconstriction in guinea pigs; format: in vivo, guinea pig (male, Hartley strain); conditions: for ED50 / inhibition in vivo at 1 mg/kg: Cavia porcellus; for inhibition in vivo at 1 mg/kg: read-out: percent inhibition at 1 mg/kg p.o., LTD4-induced bronchoconstriction (ID50 not determined)
Description: Male guinea pigs (Hartley strain, Charles River) weighing 400-600 g were anesthetized with urethane (2 g/kg) intraperitoneally, and a polyethylene cannula was inserted into the jugular vein for intravenous drug administration. Tracheal pressure (cm of H2 O) was recorded from a Statham pressure transducer (P 32 AA). Propranolol was administered 5 minutes prior to challenge with LTD4. Two minutes later spontaneous breathing was arrested with succinylcholine chloride (1.2 mg/kg) administered intravenously, and the animals were ventilated with a Harvard (Model 680) small animal respirator set at 40 breaths/min and a 4.0 cc stroke volume. Control vehicle (DMSO) or test compound was administered through the cannula into the jugular vein 1 minute before the animals were challenged with a maximum constrictory dose of LTD4 ([…] I.V.) given intravenously. The change in tracheal pressure was averaged for control and drug-treated animals and percent inhibition was calculated. For determination of oral activity, animals were dosed with test compound or vehicle (PEG400) two hours prior to challenge with LTD4 ([…], i.v.).
The relative potency of test compounds administered by the intravenous and oral route was determined by administering increasing doses of test compound at a fixed pretreatment time. The median inhibitory dose (ID50 value) was determined by linear regression of log dose-responsecurves generated by at least 3 doses that caused statistically significant inhibition between 10 and 90%. The correlation coefficient for the regression line was always greater than 0.95. For determination of the time-course of inhibition for various compounds, the time between administration of compound and challenge with LTD4 was varied. Durations of action were defined as the time for inhibitory activity to decrease to 50%.

LTD4 receptor = molecular target: T1, LTD4 receptor (Cavia porcellus, UniProt Q2NNR5); test: LTD4 receptor ligand binding assay (inhibition of [3H]LTD4 specific binding, guinea pig lung membranes); conditions: 20° C., 30 min
T1 construct: A lung homogenate was prepared from guinea pig lung membranes; from tissue; host or cells: guinea pig lung membranes
T1 sequence (Q2NNR5 1-340): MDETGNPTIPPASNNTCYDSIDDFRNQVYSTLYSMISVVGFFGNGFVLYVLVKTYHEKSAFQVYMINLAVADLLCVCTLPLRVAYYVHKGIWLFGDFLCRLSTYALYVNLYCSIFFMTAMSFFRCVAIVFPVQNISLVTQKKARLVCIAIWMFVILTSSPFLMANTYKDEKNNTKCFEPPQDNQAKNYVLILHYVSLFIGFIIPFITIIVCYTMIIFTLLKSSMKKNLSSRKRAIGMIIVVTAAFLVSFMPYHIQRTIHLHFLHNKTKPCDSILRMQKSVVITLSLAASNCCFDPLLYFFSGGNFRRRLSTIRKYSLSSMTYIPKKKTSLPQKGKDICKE
Description: A lung homogenate was prepared from guinea pig lung membranes and was resuspended in buffer containing 10 mM Tris.HCl (pH 7.5) (Hogaboom et al., Hogaboom, G. K., et al: Peptidoleukotrienes: distinct receptors for leukotriene C4 and D4 in the guinea pig lung. Biochem. Biophys. Res. Commun. 116: 1136-1143, 1983). Optimum assay conditions were determined with an assay mixture containing: 10 mM Tris.HCl (pH 7.5); 0.1% bovine serum albumin (BSA); 1 mM glycine; 1 mM cysteine; 3.5 nM [^3 H]LTD4 and the membrane preparation ([…] protein) in a final volume of […]. The incubation was carried out at 20° C. for 30 minutes. At 20° C., binding increased linearly with protein concentration, reached equilibrium in 20 minutes, was saturable, and was reversible upon addition of 1 mM unlabelled LTD4. Separation of bound from free [^3 H]LTD4 as performed by rapid filtration on GF/C glass fiber filters (Whatman International Ltd., Maidstone, England) and washing with two 4-ml aliquots of Tyrode solution (0.9 g/100 ml NaCl; 0.02 g/100 ml KCl; 0.02 g/100 ml CaCl2; 0.01 g/100 ml MgCl2; 0.1 g/100 ml glucose; 0.1 g/100 ml NaHCO3; 0.005 g/100 ml NaH2 PO4) containing 0.1% BSA. Radioactivity remaining on the filters was measured in 10 ml of Aquasol. Specific binding, was defined as that displaced by 1 mM unlabelled LTD4, and was 95% of total binding.
The inhibition of [^3 H]LTD4 specific binding by an antagonist is related to the LTD4 content of that sample by regression analysis from a "standard curve" of the inhibition of [^3 H]LTD4 specific binding by nonlabeled LTD4. The median inhibitory concentration (IC50 value) was determined by linear regression of log concentration-response curves generated by at least 3 concentrations that caused statistically significant inhibition between 10 and 90%. Results are expressed as mean±S. E. M. (standard error of the mean) of n independent experiments (separate receptor batches) conducted in duplicates.

[2] = iv, 1 min, I.V., compound 1 minute before LTD4 challenge, read-out: ID50 I.V., LTD4-induced bronchoconstriction
[3] = po, 2 h, p.o., compound two hours prior to LTD4 challenge, read-out: ID50 p.o., LTD4-induced bronchoconstriction
[4] = I.V., 1 mg/kg, compound 1 minute before LTD4 challenge
[5] = po, 2 h, p.o., 1 mg/kg, compound two hours prior to LTD4 challenge

IC50 (LTD4 receptor): 4 nM
Structure (SMILES): CC(C)c1csc(/C=C/c2cccc(NC(=O)Cc3ccccc3C(=O)O)c2)n1 [Example 1, (E)-2-[2-[3-[2-[4-(1-Methylethyl)-2-thiazolyl]ethenyl]phenylamino]-2-oxoethyl]benzoic acid]
ED50 [1, 2]: 0.008 mg/kg
ED50 [1, 3]: 0.5 mg/kg

Structure (SMILES): COC(=O)c1ccccc1CC(=O)Nc1cccc(/C=C/c2nc(C3CCC3)cs2)c1 [Example 4, (E)-2-[2-[3-[2-[4-(Cyclobutyl)-2-thiazolyl]ethenyl]phenylamino]-2-oxoethyl]benzoic Acid Methyl Ester]
ED50 [1, 2]: 0.3 mg/kg
ED50 [1, 3]: 0.3 mg/kg

Structure (SMILES): CN(C)C(=O)c1ccccc1CC(=O)Nc1cccc(/C=C/c2nc(C3CCC3)cs2)c1 [Example 5, (E)-2-[2-[3-[2-[4-(Cyclobutyl)-2-thiazolyl]ethenyl]phenylamino]-2-oxoethyl]-N,N-dimethylbenzamide]
ED50 [1, 2]: 0.005 mg/kg
ED50 [1, 3]: 0.6 mg/kg

Structure (SMILES): O=C(Cc1ccccc1CO)Nc1cccc(/C=C/c2nc(C3CCC3)cs2)c1 [Example 6, (E)-2-[2-[3-[2-[4-(Cyclobutyl)-2-thiazolyl]ethenyl]phenylamino]-2-oxoethyl]benzyl Alcohol]
ED50 [1, 2]: 0.1 mg/kg
ED50 [1, 3]: 0.3 mg/kg

Structure (SMILES): O=C(Cc1cccc(C(=O)O)c1)Nc1cccc(/C=C/c2nc(C3CCC3)cs2)c1 [Example 7b, (E)-3-[2-[3-[2-[4-(Cyclobutyl)-2-thiazolyl]ethenyl]phenylamino]-2-oxoethyl]benzoic acid]
ED50 [1, 2]: 0.3 mg/kg

Structure (SMILES): O=C(Cc1ccc(C(=O)O)cc1)Nc1cccc(/C=C/c2nc(C3CCC3)cs2)c1 [Example 8b, (E)-4-[2-[3-[2-[4-(Cyclobutyl)-2-thiazolyl]ethenyl]phenylamino]-2-oxoethyl]benzoic acid]
percent inhibition at 1 mg/kg I.V., LTD4-induced bronchoconstriction (ID50 not determined) [1, 4]: 50 ± 6%

Structure (SMILES): O=C(Cc1ccccc1C(=O)O)Nc1cccc(/C=C/c2nc(C3CCCC3)cs2)c1 [Example 9, (E)-2-[2-[3-[2-[4-(Cyclopentyl)-2-thiazolyl]ethenyl]phenylamino]-2-oxoethyl]benzoic acid]
ED50 [1, 2]: 0.005 mg/kg
ED50 [1, 3]: 0.4 mg/kg

Structure (SMILES): O=C(Cc1ccccc1C(=O)O)Nc1cccc(/C=C/c2nc(C3CCCCC3)cs2)c1 [Example 10, (E)-2-[2-[3-[2-[4-(Cyclohexyl)-2-thiazolyl]ethenyl]phenylamino]-2-oxoethyl]benzoic acid]
ED50 [1, 2]: 0.02 mg/kg
ED50 [1, 3]: 0.43 mg/kg

Structure (SMILES): O=C(Cc1ccccc1C(=O)O)Nc1cccc(/C=C/c2nc(C3CCCCCC3)cs2)c1 [Example 11i, (E)-2-[2-[3-[2-[4-(Cycloheptyl)-2-thiazolyl]ethenyl]phenylamino]-2-oxoethyl]benzoic acid]
ED50 [1, 2]: 0.02 mg/kg
inhibition in vivo at 1 mg/kg [1, 5]: 42 ± 10%

Structure (SMILES): O=C(Cc1ccccc1C(=O)O)Nc1cccc(/C=C/c2nc(C3CCCCCCC3)cs2)c1 [Example 12d, (E)-2-[2-[3-[2-[4-(Cyclooctyl)-2-thiazolyl]ethenyl]phenylamino]-2-oxoethyl]benzoic acid]
ED50 [1, 2]: 0.15 mg/kg
inhibition in vivo at 1 mg/kg [1, 5]: 24 ± 4%

Structure (SMILES): Cc1ccc(NC(=O)Cc2ccccc2C(=O)O)cc1/C=C/c1nc(C(C)C)cs1 [Example 16g, (E)-2-[2-[4-Methyl-3-[2-[4-(1-methylethyl)-2-thiazolyl]ethenyl]phenylamino]-2-oxoethyl]benzoic acid]
ED50 [1, 2]: 0.2 mg/kg
inhibition in vivo at 1 mg/kg [1, 5]: 24 ± 8%

Structure (SMILES): CCOC(=O)c1csc(/C=C/c2cccc(NC(=O)Cc3ccccc3C(=O)O)c2)n1 [Example 18c, (E)-2-[2-[3-[2-[4-(Ethoxycarbonyl)-2-thiazolyl]ethenyl]phenylamino]-2-oxoethyl]benzoic acid]
ED50 [1, 2]: 0.2 mg/kg
inhibition in vivo at 1 mg/kg [1, 5]: 13 ± 3%

Structure (SMILES): O=C(Cc1ccccc1C(=O)O)Nc1cccc(/C=C/c2nc(C(=O)O)cs2)c1 [Example 19]
percent inhibition at 1 mg/kg, previous test ([1]; 1 mg/kg, previous test (footnote ** to the I.V. value)): 0 ± 0%
percent inhibition at 1 mg/kg I.V., LTD4-induced bronchoconstriction (ID50 not determined) [1, 4]: 12 ± 4%

Structure (SMILES): O=C(Cc1ccccc1C(=O)O)Nc1cccc(/C=C/c2csc(C3CCC3)n2)c1 [Example 20h, (E)-2-[2-[3-[2-(2-Cyclobutyl-4-thiazolyl)ethenyl]phenylamino]-2-oxoethyl]benzoic acid]
ED50 [1, 2]: 0.04 mg/kg
inhibition in vivo at 1 mg/kg [1, 5]: 48 ± 6%

Structure (SMILES): O=C(CCc1ccccc1C(=O)O)Nc1cccc(/C=C/c2nc(C3CCC3)cs2)c1 [Example 21b, (E)-2-[3-[3-[2-[4-(Cyclobutyl)-2-thiazolyl]ethenyl]phenylamino]-3-oxopropyl]benzoic acid]
ED50 [1, 2]: 0.02 mg/kg
ED50 [1, 3]: 8.2 mg/kg

Structure (SMILES): O=C(NCc1ccccc1C(=O)O)c1cccc(/C=C/c2nc(C3CCC3)cs2)c1 [Example 22c, (E)-2-[[[[3-[2-(4-Cyclobutyl-2-thiazolyl)ethenyl]phenyl]carbonyl]amino]methyl]benzoic acid]
ED50 [1, 2]: 0.04 mg/kg
ED50 [1, 3]: 0.1 mg/kg

Structure (SMILES): O=C(Cc1ccc([N+](=O)[O-])cc1C(=O)O)Nc1cccc(/C=C/c2nc(C3CCC3)cs2)c1 [Example 23, (E)-5-Nitro-2-[2-[3-[2-[4-(cyclobutyl)-2-thiazolyl]ethenyl]phenylamino]-2-oxoethyl]benzoic acid]
percent inhibition at 1 mg/kg I.V., LTD4-induced bronchoconstriction (ID50 not determined) [1, 4]: 36 ± 6%

Structure (SMILES): O=C(Cc1ccc(Cl)cc1C(=O)O)Nc1cccc(/C=C/c2nc(C3CCC3)cs2)c1 [Example 24, (E)-5-chloro-2-[2-[3-[2-[4-(cyclobutyl)-2-thiazolyl]ethenyl]phenylamino]-2-oxoethyl]benzoic acid]
ED50 [1, 2]: 0.01 mg/kg
ED50 [1, 3]: 0.2 mg/kg

Structure (SMILES): O=C(Cc1c(F)cccc1C(=O)O)Nc1cccc(/C=C/c2nc(C3CCC3)cs2)c1 [Example 25, (E)-3-fluoro-2-[2-[3-[2-[4-(cyclobutyl)-2-thiazolyl]ethenyl]phenylamino]-2-oxoethyl]benzoic acid]
ED50 [1, 2]: 0.03 mg/kg
inhibition in vivo at 1 mg/kg [1, 5]: 36 ± 6%

Structure (SMILES): COc1ccc(CC(=O)Nc2cccc(/C=C/c3nc(C4CCC4)cs3)c2)c(C(=O)O)c1 [Example 26, (E)-5-Methoxy-2-[2-[3-[2-[4-(cyclobutyl)-2-thiazolyl]ethenyl]phenylamino]-2-oxoethyl]benzoic acid]
ED50 [1, 2]: 0.03 mg/kg
ED50 [1, 3]: 0.2 mg/kg

Structure (SMILES): O=C(Cc1ccc(F)cc1C(=O)O)Nc1cccc(/C=C/c2nc(C3CCC3)cs2)c1 [Example 27, (E)-5-fluoro-2-[2-[3-[2-[4-(cyclobutyl)-2-thiazolyl]ethenyl]phenylamino]-2-oxoethyl]benzoic acid]
ED50 [1, 2]: 0.2 mg/kg

Structure (SMILES): COc1cc(C(=O)O)ccc1CC(=O)Nc1cccc(/C=C/c2nc(C3CCC3)cs2)c1 [Example 28b, (E)-4-[2-[3-[2-[4-(cyclobutyl)-2-thiazolyl]ethenyl]phenylamino]-2-oxoethyl]-3-methoxybenzoic acid]
ED50 [1, 2]: 0.4 mg/kg

Structure (SMILES): CC(=O)Oc1ccc(CC(=O)Nc2cccc(/C=C/c3nc(C4CCC4)cs3)c2)c(C(=O)O)c1 [Example 31, (E)-5-Acetoxy-2-[2-[3-[2-[4-(cyclobutyl)-2-thiazolyl]ethenyl]phenylamino]-2-oxoethyl]benzoic Acid]
ED50 [1, 2]: 0.004 mg/kg
ED50 [1, 3]: 0.3 mg/kg
